SMILES strings stand for the structures.

The series can be described thus: Monitoring of recipient monkeys by blood test during immunosuppressant administration. The format is in vivo, cynomolgus monkey. Particulars: blood test after start of administration. How it is done: Regarding the start day, the day of transplantation is represented by (0), and the preceding days are represented by the minus sign (−). Specifically, in the therapy, tacrolimus (0.02 mg/kg im×2/day; day −9 from start day), abatacept (50 mg/kg iv×1/week; day 7 from start day), and mycophenolate mofetil (40 mg/kg po×2/day; day −5 from start day) were used. The administration of methylprednisolone (10 mg/kg iv) was also carried out from day 0 from the start day, which was changed to oral administration (5 mg/kg) from the next day. […] Furthermore, thymoglobulin (10 mg/kg iv on day 3), rituximab (10 mg/kg iv on day 2), tocilizumab (10 mg/kg sc on day −1, 7, and 14), and etanercept (0.5 mg/kg sc on day 0, 3, 6, and 10) were administered. The concentrations of tacrolimus and mycophenolate mofetil in blood were measured twice a week, and the dose was appropriately adjusted based on the target trough level (TAC trough level: 15 to 20 ng/mL on day −9 to 2; 9 to 12 ng/ml from day 3, MMF trough level: 4 to 6 μg/mL).
The daily dietary status and activity of the recipient monkeys were monitored, and support was provided through supplementation as needed. Furthermore, the systemic condition of the monkeys was evaluated by the measurement of body weight. body temperature, and SpO2 as well as blood sampling conducted twice a week. […]

On to `COc1c(C)c2c(c(O)c1C/C=C(\C)CCC(=O)OCCN1CCOCC1)C(=O)OC2` [MMF, Mycophenolate mofetil], for which the absorption result was “confirmed”.

The values are drawn from patent US20240226288A1, “TRANSPLANT MATERIAL AND KIDNEY TRANSPLANT KIT” (THE JIKEI UNIVERSITY, priority 2021, published 2024).
